The text below walks through data of patent publication US20120190579A1, “Functionalisation of Solid Substrates” (priority 2009, published 2012).

The target in the first data set is T1, human somatostatin receptor 2 (Homo sapiens, UniProt P30874).
T1 construct: host or cells: HEK293 cells stably expressing Kir3.1 and Kir3.2A
T1 sequence (P30874 whole entry): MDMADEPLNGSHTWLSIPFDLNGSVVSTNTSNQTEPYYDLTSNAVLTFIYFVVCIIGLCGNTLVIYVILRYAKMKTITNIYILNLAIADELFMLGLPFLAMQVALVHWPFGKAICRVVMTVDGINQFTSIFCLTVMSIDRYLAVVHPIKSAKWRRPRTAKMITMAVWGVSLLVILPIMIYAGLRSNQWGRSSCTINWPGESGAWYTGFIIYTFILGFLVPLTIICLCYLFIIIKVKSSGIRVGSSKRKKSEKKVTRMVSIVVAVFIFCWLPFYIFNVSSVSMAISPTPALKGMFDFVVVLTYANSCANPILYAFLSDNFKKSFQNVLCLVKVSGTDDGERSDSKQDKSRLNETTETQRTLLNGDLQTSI
Put plainly: Whole cell patch-clamp current recordings of bridged somatostatin analogues. The class given is cell-based. Conditions: Pertussis toxin 100 ng/ml overnight; Tertiapin 100 nM. On the technique in general: Patch clamp records ionic current or voltage across a cell membrane.
Method: HEK 293 cells expressing HKIR3.1/3.2 channel and human somatostatin receptor 2 were treated with these compounds, and whole cell patch-clamp current recordings taken.
HEK293 cells (human embryonic kidney cell line) stably expressing Kir3.1 and Kir3.2A channels were maintained in minimum essential medium supplemented with 10% foetal calf serum and 727 μg of G418 (Invitrogen), at 37° C. in humidified atmosphere (95% O2, 5% CO2). Cells were transiently transfected with SSTR2DNA (Missouri S&T cDNA Resource Center) along with pEGFP-N1 (Clontech) for visualization of transfected cells using epifluorescence. […]
Somatostatin and its analogues were dialysed for 24 h at 4° C. in buffer (50 mM sodium phosphate, pH 6.2) to remove the organic solvents. After dialysis the concentration was determined and the peptides stored at 4° C. […]
Whole cell patch-clamp current recordings were performed with an Axopatch 200B amplifier (Axon Instruments) using fire-polished pipettes with a resistance of 3-4 MΩ pulled from filamented borosilicated glass capillaries (Harvard Apparatus, 1.5 mm OD×1.17 mm ID). Data was acquired and analysed via a Digidata 1322A interface (Axon Instruments) and pCLAMP software (version 8.1, Axon Instruments). […] For each cell it was assessed if flow artifacts resulting from the pressure of drug application were present. […]
Take Pertussis toxin: the “GIRK currents after treatment of cells with inhibitor (control)” value is recorded as “currents were largely inhibited”. Consider Tertiapin Q, for which the “GIRK currents after treatment of cells with inhibitor (control)” value is given as “currents were largely inhibited”.

The target in another data set is neutravidin-coated agarose beads (Gallus gallus, UniProt P02701). In words: Pull-down and release of biotinylated protein adduct on neutravidin coated agarose beads. Conditions: release with β-mercaptoethanol (25 mM) 2 h at 37° C.; densitometry vs protein series dilution. How it is done: Protein/biotin-PEG-bromomaleimide adduct (200 μL) and unmodified model protein (200 μL) were washed independently with PBS buffer (3×500 μL) in a concentrator (Vivaspin, cut off 10 k) yielding protein solutions (300 μL) (In). For each of the protein solutions obtained, neutravidin-coated agarose beads (750 μL of 50% aqueous slurry) were washed with PBS (2×500 μL). Protein solution (300 μL) was then added to the beads and the mixture incubated at 4° C. for 30 mins. The mixture was centrifuged and the flow through (FT) collected. The beads were washed with PBS (2×500 μL) and both wash fractions collected (W1 and W2). Protein was released from the beads by incubation in PBS (300 μL) containing β-mercaptoethanol (25 mM) for 2 h at 37° C. The sample was centrifuged and the eluant (El) containing cleaved GrB2-SH2 domain L111C collected.
The amount of protein recovered was determined as 44% by comparison with a protein series dilution via densitometry. However, correcting for irreversibly physisorbed protein (determined using the unmodified protein control) the corrected recovery was 71%.
For “GrB2-SH2 Domain L111C/Biotin-PEG-bromomaleimide Adduct”, the “amount of protein recovered” value was determined as 44%.

System in a further data set: not given
Assay: not given
Conditions: not given
By melting point is commonly meant the temperature, or range, at which the solid turns liquid. For `O=C(CCCC[C@@H]1SC[C@@H]2NC(=O)N[C@@H]21)NCCOCCOCCN1C(=O)C(Br)=C(Br)C1=O` (stereo in doubt), the melting point fell in the range of 100 to 102 °C.

As to `CCCCCCSC1=CC(=O)NC1=O`, the melting point lay in the range of 99 to 101 °C.

`O=C1NC(=O)C23NCC[C@H]2C[C@H]13` (some centres unmarked) showed a melting point of 110 to 113 °C. The same measure, in the same setting: for `O=C1C=C(Br)C(=O)N1` the value was 148 to 151 °C; for `O=C(CCCC[C@@H]1SC[C@@H]2NC(=O)N[C@@H]21)NCCOCCOCCN1C(=O)C=C(Br)C1=O` (stereo in doubt), 95 to 98 °C. On to `CN1C(=O)C=C(Br)C1=O`, for which the melting point was 77 to 79 °C. Same read-out and setting: in the case of `O=C1NC(=O)C(SCCO)=C1SCCO` it was 46 to 50 °C; in that of `CC(C)(C)OC(=O)NCCOCCOCCNC(=O)CCCC[C@@H]1SC[C@@H]2NC(=O)N[C@@H]21` (stereo in doubt), 106 to 108 °C; in that of `O=C1NC(=O)C(I)=C1I`, 238 to 241 °C. The compound `COC(=O)[C@H](CSC1=CC(=O)N(C)C1=O)NC(=O)OC(C)(C)C` yielded a melting point of 101 to 103 °C. Still for that read-out and setting: in the case of `O=C1CC2(SCCS2)C(=O)N1` it was 112 to 115 °C; in that of `COC(=O)[C@H](CSC1=CC(=O)NC1=O)NC(=O)OC(C)(C)C`, 145 to 147 °C; in that of `O=C1NC(=O)C(Sc2ccccn2)=C1Sc1ccccn1`, 70 to 72 °C. The same measure, in the same setting: for `C=CCCNC1=CC(=O)NC1=O` the value was 68 to 76 °C.
